According to patent publication US20210308173A1, “PHARMACEUTICAL COMPOSITION COMPRISING CYCLODEXTRIN COMPLEXES OF ANETHOLE TRITHIONE OR DERIVATIVES THEREOF” (priority 2018, published 2021):

Assay: Cyclodextrin-AOL solubility diagrams
Assay type: physicochemical
From the text: A cyclodextrin-AOL solubility diagram would reveal the profile of the solubility curve of the AOL depending on the concentration of the cyclodextrin. The principle of this method is to add an excess of AOL to cyclodextrin solutions of increasing concentration, then to measure the amount of solubilized AOL. This method confirms the solubilization and evaluates more precisely the cyclodextrin solubilizing power, to define a stoichiometry of the complexes (molar and mass ratios) over the entire range of concentrations studied and to estimate the solubility limit and the stability of the mixtures.
The solubilization was carried out with HP-β-CD and SBE-β-CD in a range of concentration ranging from 2.5% to 40% (m/m) at 20° C., 25° C. and 30° C. To check the stability of the solution, a storage test at 4° C. for 48 hours was carried out with the solutions previously prepared at 20° C.
Aqueous solutions of cyclodextrin at in weight (m/m) concentrations of 2.5%, 5%, 10%, 20%, 30% and 40% were prepared in pure water. An excess of AOL was suspended in 2 mL each of these solutions. Each sample is shaken at 20° C., 25° C. or 30° C. for 4 hours (vortex at 1400 rpm). Each sample is centrifuged (12,500 g) and filtered through a 0.45 μm membrane.
The solubility of AOL in each test solution was quantified by HPLC as detailed in Example 2.

[1] = HP-β-CD 2.5% (w/w), 20° C. followed by 48 hours at 4° C.
[2] = HP-β-CD 5% (w/w), 20° C. followed by 48 hours at 4° C.
[3] = HP-β-CD 10% (w/w), 20° C. followed by 48 hours at 4° C.
[4] = HP-β-CD 20% (w/w), 20° C. followed by 48 hours at 4° C.
[5] = HP-β-CD 30% (w/w), 20° C. followed by 48 hours at 4° C.
[6] = HP-β-CD 40% (w/w), 20° C. followed by 48 hours at 4° C.
[7] = SBE-β-CD 2.5% (w/w), 20° C. followed by 48 hours at 4° C.
[8] = SBE-β-CD 5% (w/w), 20° C. followed by 48 hours at 4° C.
[9] = SBE-β-CD 10% (w/w), 20° C. followed by 48 hours at 4° C.

COc1ccc(-c2cc(=S)ss2)cc1 [AOL, 5-(4-methoxyphenyl)-3H-1,2-dithiole-3-thione]
CD/AOL molar ratio RM (HP-β-CD 2.5% (w/w), 20° C.): 200
CD/AOL weight ratio Rm (HP-β-CD 2.5% (w/w), 20° C.): 1866
CD/AOL molar ratio RM [1]: 231
CD/AOL weight ratio Rm [1]: 2155
CD/AOL molar ratio RM (HP-β-CD 2.5% (w/w), 25° C.): 137
CD/AOL weight ratio Rm (HP-β-CD 2.5% (w/w), 25° C.): 1282
CD/AOL molar ratio RM (HP-β-CD 2.5% (w/w), 30° C.): 103
CD/AOL weight ratio Rm (HP-β-CD 2.5% (w/w), 30° C.): 958
CD/AOL molar ratio RM (HP-β-CD 5% (w/w), 20° C.): 196
CD/AOL weight ratio Rm (HP-β-CD 5% (w/w), 20° C.): 1832
CD/AOL molar ratio RM [2]: 213
CD/AOL weight ratio Rm [2]: 1992
CD/AOL molar ratio RM (HP-β-CD 5% (w/w), 25° C.): 133
CD/AOL weight ratio Rm (HP-β-CD 5% (w/w), 25° C.): 1247
CD/AOL molar ratio RM (HP-β-CD 5% (w/w), 30° C.): 104
CD/AOL weight ratio Rm (HP-β-CD 5% (w/w), 30° C.): 973
CD/AOL molar ratio RM (HP-β-CD 10% (w/w), 20° C.): 175
CD/AOL weight ratio Rm (HP-β-CD 10% (w/w), 20° C.): 1631
CD/AOL molar ratio RM [3]: 203
CD/AOL weight ratio Rm [3]: 1898
CD/AOL molar ratio RM (HP-β-CD 10% (w/w), 25° C.): 128
CD/AOL weight ratio Rm (HP-β-CD 10% (w/w), 25° C.): 1192
CD/AOL molar ratio RM (HP-β-CD 10% (w/w), 30° C.): 94
CD/AOL weight ratio Rm (HP-β-CD 10% (w/w), 30° C.): 874
CD/AOL molar ratio RM (HP-β-CD 20% (w/w), 20° C.): 148
CD/AOL weight ratio Rm (HP-β-CD 20% (w/w), 20° C.): 1381
CD/AOL molar ratio RM [4]: 197
CD/AOL weight ratio Rm [4]: 1840
CD/AOL molar ratio RM (HP-β-CD 20% (w/w), 25° C.): 116
CD/AOL weight ratio Rm (HP-β-CD 20% (w/w), 25° C.): 1086
CD/AOL molar ratio RM (HP-β-CD 20% (w/w), 30° C.): 84
CD/AOL weight ratio Rm (HP-β-CD 20% (w/w), 30° C.): 784
CD/AOL molar ratio RM (HP-β-CD 30% (w/w), 20° C.): 132
CD/AOL weight ratio Rm (HP-β-CD 30% (w/w), 20° C.): 1235
CD/AOL molar ratio RM [5]: 172
CD/AOL weight ratio Rm [5]: 1607
CD/AOL molar ratio RM (HP-β-CD 30% (w/w), 25° C.): 112
CD/AOL weight ratio Rm (HP-β-CD 30% (w/w), 25° C.): 1044
CD/AOL molar ratio RM (HP-β-CD 30% (w/w), 30° C.): 70
CD/AOL weight ratio Rm (HP-β-CD 30% (w/w), 30° C.): 655
CD/AOL molar ratio RM (HP-β-CD 40% (w/w), 20° C.): 124
CD/AOL weight ratio Rm (HP-β-CD 40% (w/w), 20° C.): 1162
CD/AOL molar ratio RM [6]: 159
CD/AOL weight ratio Rm [6]: 1481
CD/AOL molar ratio RM (HP-β-CD 40% (w/w), 25° C.): 103
CD/AOL weight ratio Rm (HP-β-CD 40% (w/w), 25° C.): 958
CD/AOL molar ratio RM (HP-β-CD 40% (w/w), 30° C.): 66
CD/AOL weight ratio Rm (HP-β-CD 40% (w/w), 30° C.): 621
CD/AOL molar ratio RM (SBE-β-CD 2.5% (w/w), 20° C.): 91
CD/AOL weight ratio Rm (SBE-β-CD 2.5% (w/w), 20° C.): 853
CD/AOL molar ratio RM [7]: 158
CD/AOL weight ratio Rm [7]: 1479
CD/AOL molar ratio RM (SBE-β-CD 2.5% (w/w), 25° C.): 75
CD/AOL weight ratio Rm (SBE-β-CD 2.5% (w/w), 25° C.): 698
CD/AOL molar ratio RM (SBE-β-CD 2.5% (w/w), 30° C.): 60
CD/AOL weight ratio Rm (SBE-β-CD 2.5% (w/w), 30° C.): 559
CD/AOL molar ratio RM (SBE-β-CD 5% (w/w), 20° C.): 90
CD/AOL weight ratio Rm (SBE-β-CD 5% (w/w), 20° C.): 838
CD/AOL molar ratio RM [8]: 155
CD/AOL weight ratio Rm [8]: 1445
CD/AOL molar ratio RM (SBE-β-CD 5% (w/w), 25° C.): 71
CD/AOL weight ratio Rm (SBE-β-CD 5% (w/w), 25° C.): 668
CD/AOL molar ratio RM (SBE-β-CD 5% (w/w), 30° C.): 56
CD/AOL weight ratio Rm (SBE-β-CD 5% (w/w), 30° C.): 520
CD/AOL molar ratio RM (SBE-β-CD 10% (w/w), 20° C.): 85
CD/AOL weight ratio Rm (SBE-β-CD 10% (w/w), 20° C.): 798
CD/AOL molar ratio RM [9]: 151
CD/AOL weight ratio Rm [9]: 1414
CD/AOL molar ratio RM (SBE-β-CD 10% (w/w), 25° C.): 68
CD/AOL weight ratio Rm (SBE-β-CD 10% (w/w), 25° C.): 639
CD/AOL molar ratio RM (SBE-β-CD 10% (w/w), 30° C.): 54
CD/AOL weight ratio Rm (SBE-β-CD 10% (w/w), 30° C.): 507
CD/AOL molar ratio RM (SBE-β-CD 20% (w/w), 20° C.): 77
